Holding throughout (experiment): NCI 5-dose assay
Holding throughout (assay type): cell-based

The subject of one assay is A498. Particulars: Homo sapiens; A498, Renal cancer. As to the method: (§1) The synthesized dichlorobenzimidazoles 10a–p were assayed for their influence on divers cancer cell lines according to the method presented in the Additional file A.
(§2) 5. Screening of cytotoxic activity against a panel of sixty human tumor cell lines
(§3) The selected compounds by NCI were evaluated for their anticancer activity in a two-stage process. First, these compounds were screened against the full NCI 60 cell lines panel at a single high dose of 10 µM. Then, the output from the single dose screen is reported as a mean graph. […]
(§4) at five different minimal concentrations.
(§5) Assay protocol. The human tumor cell lines of the cancer screening panel are grown in RPMI 1640 medium containing 5% fetal bovine serum and 2 mM L-glutamine. For a typical screening experiment, cells are inoculated into 96 well microtiter plates in 100 µL at plating densities ranging from 5000 to 40,000 cells/well depending on the doubling time of individual cell lines. After cell inoculation, the microtiter plates are incubated at 37 °C, 5% CO 2, 95% air and 100% relative humidity for 24 h prior to addition of the experimental drugs.
(§6) After 24 h, two plates of each cell line are fixed in situ with TCA, to represent a measurement of the cell population for each cell line at the time of drug addition (Tz). The experimental drugs are solubilized in dimethyl sulfoxide at 400-fold the desired final maximum test concentration and stored frozen prior to use. At the time of drug addition, an aliquot of frozen concentrate is thawed and diluted to twice the desired final maximum test concentration with complete medium containing 50 µg/mL gentamicin. Additional four, 10-fold or ½ log serial dilutions are made to provide a total of five drug concentrations plus control.
(§7) Aliquots of […] of these different drug dilutions are added to the appropriate microtiter wells already containing […] of medium, resulting in the required final drug concentrations.
(§8) Following drug addition, the plates are incubated for an additional 48 h at 37 °C, 5% CO 2, 95% air, and 100% relative humidity. For adherent cells, the assay is terminated by the addition of cold TCA.
(§9) Cells are fixed in situ by the gentle addition of 50 µL of cold 50% (w/v) TCA (final concentration, 10% TCA) and incubated for 60 min at 4 °C. The supernatant is discarded, and the plates are washed five times with tap water and air dried. Sulforhodamine B (SRB) solution ([…]) at 0.4% (w/v) in 1% acetic acid is added to each well, and plates are incubated for 10 min at room temperature. After staining, unbound dye is removed by washing five times with 1% acetic acid and the plates are air dried. Bound stain is subsequently solubilized with 10 mM trizma base, and the absorbance is read on an automated plate reader at a wavelength of 515 nm. For suspension cells, the methodology is […]
(§10) the same except that the assay is terminated by fixing settled cells at the bottom of the wells by gently adding 50 µl of 80% TCA (final concentration, 16% TCA). Using the seven absorbance measurements [time zero, (Tz), control growth, (C), and test growth in the presence of drug at the five concentration levels (Ti)], the percentage growth is calculated at each of the drug concentrations […]
(§11) Percentage growth inhibition is calculated as: [(Ti Tz)/(C–Tz)] x 100 for concentrations for which Ti>/=Tz and [(Ti-Tz)/Tz] x 100 for concentrations for which Ti < Tz.
(§12) Three dose response parameters are calculated for each experimental agent. Growth […]
(§13) concentration resulting in a 50% reduction in the net protein increase (as measured by SRB staining) in control cells during the drug incubation. The drug concentration resulting in total growth inhibition (TGI) is calculated from Ti = Tz. […]
(§14) reduction in the measured protein at the end of the drug treatment as compared to that at the beginning) indicating a net loss of cells following treatment is calculated from [(Ti–Tz)/Tz] x 100 =
(§15) _50. Values are calculated for each of these three parameters if the level of activity is reached; […]

The subject of the next assay is A549/ATCC. Particulars: Homo sapiens, Non-small cell lung cancer. As to the method:
as §1, §2, §3, §4, §5, §6, §7, §8, §9, §10, §11, §12, §13, §14, §15

The subject of another assay is ACHN. Particulars: Homo sapiens, Renal cancer. The protocol:
as §1, §2, §3, §4, §5, §6, §7, §8, §9, §10, §11, §12, §13, §14, §15

The test system of the next assay is DU-145. Particulars: Homo sapiens; DU-145, Prostate cancer. The protocol:
as §1, §2, §3, §4, §5, §6, §7, §8, §9, §10, §11, §12, §13, §14, §15

The next assay has as its system HCT-15. Particulars: Homo sapiens; HCT-15, Colon cancer. As to the method: as §1, §2, §3, §4, §5, §6, §7, §8, §9, §10, §11, §12, §13, §14, §15
A further assay has as its system HOP-62. Particulars: Homo sapiens; HOP-62, Non-small cell lung cancer. The protocol:
as §1, §2, §3, §4, §5, §6, §7, §8, §9, §10, §11, §12, §13, §14, §15

The test system of a further assay is HS 578T. Particulars: Homo sapiens, Breast cancer. As to the method:
as §1, §2, §3, §4, §5, §6, §7, §8, §9, §10, §11, §12, §13, §14, §15

The next assay has as its system IGROV1. Particulars: Homo sapiens, IGROV-1; IGROV1, Ovarian cancer. As to the method: as §1, §2, §3, §4, §5, §6, §7, §8, §9, §10, §11, §12, §13, §14, §15
A further assay relates to LOX IMVI. Particulars: Homo sapiens, Melanoma. As to the method: as §1, §2, §3, §4, §5, §6, §7, §8, §9, §10, §11, §12, §13, §14, §15
For the next assay, the system named is NCI-H226. Particulars: Homo sapiens; NCI-H226, Non-small cell lung cancer. As to the method:
as §1, §2, §3, §4, §5, §6, §7, §8, §9, §10, §11, §12, §13, §14, §15

A further assay concerns NCI-H23. Particulars: Homo sapiens; NCI-H23, Non-small cell lung cancer. As to the method:
as §1, §2, §3, §4, §5, §6, §7, §8, §9, §10, §11, §12, §13, §14, §15

Another assay deals with NCI-H322M. Particulars: Homo sapiens, Non-small cell lung cancer. The protocol:
as §1, §2, §3, §4, §5, §6, §7, §8, §9, §10, §11, §12, §13, §14, §15

In the next assay the test system is OVCAR-8. Particulars: Homo sapiens; OVCAR-8, Ovarian cancer. As to the method:
as §1, §2, §3, §4, §5, §6, §7, §8, §9, §10, §11, §12, §13, §14, §15

The next assay has as its system PC-3. Particulars: Homo sapiens; PC-3, Prostate cancer. The protocol:
as §1, §2, §3, §4, §5, §6, §7, §8, §9, §10, §11, §12, §13, §14, §15

A further assay relates to RXF 393. Particulars: Homo sapiens; RXF 393, Renal cancer. The protocol: as §1, §2, §3, §4, §5, §6, §7, §8, §9, §10, §11, §12, §13, §14, §15
A further assay concerns SF-539. Particulars: Homo sapiens; SF-539, CNS cancer. The protocol:
as §1, §2, §3, §4, §5, §6, §7, §8, §9, §10, §11, §12, §13, §14, §15

A further assay has as its system SK-MEL-28. Particulars: Homo sapiens; SK-MEL-28, Melanoma. As to the method: as §1, §2, §3, §4, §5, §6, §7, §8, §9, §10, §11, §12, §13, §14, §15
The next assay relates to SK-OV-3. Particulars: Homo sapiens; SK-OV-3, Ovarian cancer. As to the method:
as §1, §2, §3, §4, §5, §6, §7, §8, §9, §10, §11, §12, §13, §14, §15

For another assay, the system named is SN12C. Particulars: Homo sapiens, Renal cancer. The protocol:
as §1, §2, §3, §4, §5, §6, §7, §8, §9, §10, §11, §12, §13, §14, §15

A further assay has as its system SNB-75. Particulars: Homo sapiens; SNB-75, CNS cancer. The protocol: as §1, §2, §3, §4, §5, §6, §7, §8, §9, §10, §11, §12, §13, §14, §15
The subject of another assay is SW-620. Particulars: Homo sapiens; SW-620, Colon cancer. The protocol: as §1, §2, §3, §4, §5, §6, §7, §8, §9, §10, §11, §12, §13, §14, §15
A further assay relates to T-47D. Particulars: Homo sapiens, T47D, Breast cancer. The protocol: as §1, §2, §3, §4, §5, §6, §7, §8, §9, §10, §11, §12, §13, §14, §15
Another assay has as its system U251. Particulars: Homo sapiens, U-251; U251, CNS cancer. As to the method:
as §1, §2, §3, §4, §5, §6, §7, §8, §9, §10, §11, §12, §13, §14, §15

GI50 data for three compounds are collected here from publication PMC11844072, “Novel 5,6-dichlorobenzimidazole derivatives as dual BRAFWT and BRAFV600E inhibitors: design, synthesis, anti-cancer activity and molecular dynamics simulations” (BMC Chemistry, 2025).

Structures are written as SMILES.

Turning to `COC(=O)COc1ccc(C=NNC(=O)Cn2c(-c3ccc(OC)cc3)nc3cc(Cl)c(Cl)cc32)cc1` [Compound 10h, Methyl-2-(4-((2-(2-(5,6-dichloro-2-(4-methoxyphenyl)-1H-benzo[d]imidazol-1-yl)acetyl)hydrazono)methyl)phenoxy)acetate], the GI50 is 15.4 µM with A498; > 82.5 µM with A549/ATCC; 7.84 µM with ACHN; 1.67 µM in the assay with DU-145; 11.2 µM in the assay with HCT-15; 17.3 µM in the assay with HOP-62. The GI50 was 10.1 µM with HS 578T; 4.06 µM in the assay on IGROV1; 6.83 µM in the assay on LOX IMVI; > 82.5 µM in the assay with NCI-H226; > 82.5 µM in the assay with NCI-H23; 21.3 µM in the assay with NCI-H322M. The GI50 in the assay on OVCAR-8 was found to be 2.93 µM; in the assay with PC-3 it was 4.45 µM; in the assay with RXF 393 it was 2.85 µM; in the assay with SF-539 it was 10.7 µM; in the assay with SK-MEL-28, 11.7 µM; in the assay on SK-OV-3 it was 19.1 µM. In addition, the GI50 with SN12C was found to be 2.95 µM; in the assay on SNB-75 it was 2.14 µM; in the assay with SW-620, 22.2 µM; in the assay with T-47D it was 2.68 µM; with U251, 14.1 µM.

`COC(=O)COc1cc(C=NNC(=O)Cn2c(-c3ccc(OC)cc3)nc3cc(Cl)c(Cl)cc32)ccc1OC` [Compound 10o, Methyl-2-(5-((2-(2-(5,6-dichloro-2-(4-methoxyphenyl)-1H-benzo[d]imidazol-1-yl)acetyl)hydrazono)methyl)-2-methoxyphenoxy)acetate]: the GI50 with A498 is > 100 µM; with A549/ATCC, > 100 µM; in the assay on ACHN it was 14.2 µM; with DU-145, 4.79 µM; with HCT-15, > 100 µM; in the assay with HOP-62, > 100 µM. The GI50 in the assay on HS 578T is 2.68 µM; with IGROV1, 14.7 µM; in the assay on LOX IMVI it was > 100 µM; in the assay on NCI-H226 it was > 100 µM; in the assay on NCI-H23, > 100 µM; in the assay on NCI-H322M, 60.4 µM. Also, the GI50 in the assay on OVCAR-8 is 8.68 µM; in the assay with PC-3, 17.2 µM; in the assay with RXF 393, 11 µM; in the assay with SF-539, 5.28 µM; in the assay on SK-MEL-28, > 100 µM; in the assay on SK-OV-3 it was 26 µM. Moreover, the 50% growth inhibitory concentration (GI50) is 7.92 µM in the assay with SN12C; 14.4 µM in the assay on SNB-75; > 100 µM in the assay on SW-620; 12.7 µM with T-47D; > 100 µM with U251.

In the case of `COC(=O)COc1ccc(C=NNC(=O)Cn2c(-c3ccc(OC)cc3)nc3cc(Cl)c(Cl)cc32)cc1OC` [Compound 10p, Methyl-2-(4-((2-(2-(5,6-dichloro-2-(4-methoxyphenyl)-1H-benzo[d]imidazol-1-yl)acetyl)hydrazono)methyl)-2-methoxyphenoxy)acetate], the concentration for 50% growth inhibition (GI50) in the assay with A498 was 11.6 µM; with A549/ATCC it was > 72.5 µM; with ACHN it was 5.42 µM; with DU-145, 1.9 µM; in the assay on HCT-15, > 72.5 µM; in the assay on HOP-62 it was > 72.5 µM. Also, the GI50 in the assay with HS 578T is 4.34 µM; in the assay with IGROV1 it was 3.6 µM; in the assay with LOX IMVI, 31.2 µM; in the assay with NCI-H226 it was > 72.5 µM; in the assay with NCI-H23, > 72.5 µM; with NCI-H322M, 22.2 µM. Also, the GI50 with OVCAR-8 was 2.54 µM; in the assay with PC-3, 4.38 µM; in the assay on RXF 393, 1.43 µM; with SF-539, 7.52 µM; with SK-MEL-28, > 72.5 µM; in the assay with SK-OV-3, 16 µM. In addition, the GI50 in the assay with SN12C is 2.2 µM; in the assay on SNB-75, 1.73 µM; in the assay with SW-620, > 72.5 µM; with T-47D it was 4.47 µM; in the assay on U251 it was > 72.5 µM.
